Experimental data: patent US20250034165A1, “COMPOUND CONTAINING CYCLOALKYL OR HALOALKYL” (CHIA TAI TIANQING PHARMACEUTICAL GROUP CO., LTD., priority 2021, published 2025)
Where two headings read alike, the source gives them in different places.

How the values were obtained:
[1] = molecular target: EGFR (d746-750/T790M/C797S) (Homo sapiens (Human), UniProt P00533, C797S/DEL746-750/T790M); assay: Inhibitory activity for EGFR (d746-750/T790M/C797S) kinase; type: biochemical; conditions: ATP 5 μM; read-out: EGFR(d19/T790M/C797S) (IC50)
EGFR (d746-750/T790M/C797S), sequence (P00533 other isoform, or with tags, fused parts or gaps T790M/C797S/del 1-694/del 746-750 limits assumed): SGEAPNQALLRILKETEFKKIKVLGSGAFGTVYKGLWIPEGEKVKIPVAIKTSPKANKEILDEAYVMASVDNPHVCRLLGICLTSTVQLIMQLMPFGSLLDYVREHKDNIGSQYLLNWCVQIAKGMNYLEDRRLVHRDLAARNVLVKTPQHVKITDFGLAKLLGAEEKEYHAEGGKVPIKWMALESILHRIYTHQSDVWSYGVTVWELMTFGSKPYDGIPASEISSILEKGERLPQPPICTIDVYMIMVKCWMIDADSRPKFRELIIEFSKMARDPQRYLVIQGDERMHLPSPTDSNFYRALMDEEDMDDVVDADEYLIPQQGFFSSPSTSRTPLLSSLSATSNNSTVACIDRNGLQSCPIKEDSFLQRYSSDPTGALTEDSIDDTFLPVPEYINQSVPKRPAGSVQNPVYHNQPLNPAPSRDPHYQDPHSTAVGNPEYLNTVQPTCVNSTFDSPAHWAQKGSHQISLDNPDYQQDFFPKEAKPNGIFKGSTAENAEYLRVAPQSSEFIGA
Method: 1.5 Screening for Inhibitory Activity for EGFR (d746-750/T790M/C797S) Kinase
(§1) A 50 ng/μL EGFR (d746-750/T790M/C797S, BPS) stock solution was diluted with a kinase buffer (50 mM HEPES, 10 mM MgCl2, 2 mM DTT, 1 mM EGTA, 0.01% Tween 20), and 6 μL of 1.67× working solution at 0.05 ng/μL (final concentration: 0.03 ng/μL) was added to each well. Different compounds dissolved in DMSO were added to the wells using a nanoliter pipettor, resulting in the final concentrations of the compounds of 10 nM to 0.0024 nM (4-fold gradient for 7 concentrations in total), and blank control wells (without enzyme) and negative control wells (with enzyme, plus vehicle DMSO) were set, 2 replicate wells for each concentration. After enzyme was reacted with the compound or vehicle for 30 min, 5×ATP at 25 μM (final concentration: 5 μM, Sigma) prepared with a kinase buffer was mixed with 5× substrate at 0.5 μM (final concentration: 0.1 μM, ULight-poly GT, PerkinElmer) at a ratio of 1:1 (v:v), and the mixture was added to each well at 4 μL/well. After being sealed with a film, the plate was incubated at room temperature for 2 h, and then 5 μL of 4×EDTA at 40 mM (final concentration: 10 mM) was added to each well. After the plate was incubated for 5 min at room temperature, 5 μL of 4× detection reagent at 8 nM (final concentration: 2 nM, Eu-anti-phospho-tyrosine antibody, PerkinElmer) was added to each well. After being incubated at room temperature for 1 h, the plate was read using a PerkinElmer Envision multi-mode microplate reader (excitation: 320 nm, emission: 665 nm), and IC50 was calculated by four-parameter fitting.

[2] = test system: BAF3-EGFR (L858R/T790M/C797S) cells; assay: Inhibition of proliferation of BAF3-EGFR (L858R/T790M/C797S) cells, CCK-8; type: cell-based; conditions: Ba/F3 EGFR, 72 h, read-out: BAF3(EGFR T790M L858R C797S) cell inhibitory activity IC50
Method: (§2) A flask of EGFR (L858R/T790M/C797S) cells in the logarithmic growth phase and good conditions was taken, and the cells were collected and added to a centrifuge tube. 20 μL of cells were taken and counted, and the required number of cells (mL) was pipetted and centrifuged at 1200 rpm for 3 min. The supernatant was discarded, and an appropriate amount of plating medium (RPMI medium+10% FBS) was added to adjust the cell density to 1.5×10^5 cells/mL. The cells were seeded on a 96-well plate at 100 μL/well using a multi-channel pipette and cultured in a cell incubator at 37° C., 5% CO2 with saturated humidity. After overnight incubation, compounds were loaded using a nanoliter pipettor, 2 duplicate wells were set for each concentration, and cells without compound added were used as negative controls.
(§3) Inhibition rate (%)=(mean value of negative control group-mean value of experimental group)/(mean value of negative control group−mean value of blank group)×100%.
(§4) A dose-response curve was fitted by four-parameter analysis, with the logarithm of compound concentration serving as abscissa and inhibition rate serving as ordinate, such that IC50 was calculated.

[3] = test system: PC-9 EGFR-Del19-T790M-C797S cells; assay: Inhibition of proliferation of PC-9-EGFR (Del19 T790M C797S) cells, CCK-8; type: cell-based; conditions: 72 h, read-out: PC-9-EGFR (Del19 T790M C797S) cell inhibitory activity IC50
Method: PC-9 EGFR-Del19-T790M-C797S cells in the logarithmic growth phase and good conditions were taken, washed with PBS, digested with pancreatin, terminated with a complete medium, collected and added to a centrifuge tube, adjusted to a cell density of 2×10^4 cells/mL, and seeded in a 96-well plate (100 μL/well). Meanwhile, compounds were loaded using a nanoliter pipettor resulting in the final concentrations of the compounds of 1000 nM-0.06 nM, and a control was set, replicate wells for each concentration. After 72 h of incubation in the cell incubator, the assay reagent CCK-8 (manufacturer: Dojindo Laboratories, Beijing; 10 μL/well) was added. After 2 h of incubation in the cell incubator, absorbance was measured at 450 nm on a PerkinElmer Envision microplate reader, and the inhibition rate was calculated.
as §3, §4

[4] = test system: BAF3-EGFR (del19/T790M/C797S) cells; assay: Inhibition of proliferation of BAF3-EGFR (Del19/T790M/C797S) cells, CCK-8; type: cell-based; conditions: Ba/F3 EGFR-Del19/T790M/C797S, 72 h, read-out: BAF3(EGFR T790M Del19 C797S) cell inhibitory activity IC50
Method: as §2, with “BAF3-EGFR (del19/T790M/C797S)” for “EGFR (L858R/T790M/C797S)”, “1.0×10^5” for “1.5×10^5”
as §3, §4

[5] = molecular target: EGFR (d746-750 (d19)/T790M) (Homo sapiens (Human), UniProt P00533, DEL746-750/T790M); assay: Inhibitory activity for EGFR (d746-750 (d19)/T790M) kinase; type: biochemical; conditions: ATP 5 μM
EGFR (d746-750 (d19)/T790M), sequence (P00533 other isoform, or with tags, fused parts or gaps T790M/del 1-668/del 746-750 limits assumed): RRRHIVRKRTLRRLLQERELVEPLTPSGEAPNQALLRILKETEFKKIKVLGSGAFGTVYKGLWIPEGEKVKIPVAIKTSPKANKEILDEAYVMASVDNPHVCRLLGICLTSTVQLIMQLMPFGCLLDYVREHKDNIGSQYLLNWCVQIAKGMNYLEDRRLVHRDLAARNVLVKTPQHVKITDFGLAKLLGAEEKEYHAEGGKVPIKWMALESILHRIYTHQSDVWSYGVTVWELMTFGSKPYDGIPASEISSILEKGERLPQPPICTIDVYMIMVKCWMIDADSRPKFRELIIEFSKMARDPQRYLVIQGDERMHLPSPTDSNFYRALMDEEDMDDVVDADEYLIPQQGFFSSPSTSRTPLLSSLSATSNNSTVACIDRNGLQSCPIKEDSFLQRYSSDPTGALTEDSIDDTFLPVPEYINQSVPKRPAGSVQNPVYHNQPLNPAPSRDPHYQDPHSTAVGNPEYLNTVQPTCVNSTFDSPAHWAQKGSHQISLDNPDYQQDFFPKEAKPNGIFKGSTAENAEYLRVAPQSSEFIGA
Method: 1.3 Screening for Inhibitory Activity for EGFR (d746-750 (d19)/T790M) Kinase
as §1, with “(d746-750/T790M, Carna)” for “(d746-750/T790M/C797S, BPS)”, “0.005” for “0.05”, “0.003” for “0.03”

[6] = In vivo pharmacokinetics in ICR mice; conditions: for AUC(0-inf) / AUC(0-t) / MRT last / half-life / bioavailability / Cmax / Tmax: mouse, plasma; for AUC(0-t): read-out: AUC(0-t); for MRT last: read-out: MRT(0-t); for half-life: read-out: T½ (converted); for bioavailability: 10 mg/kg, PO vs IV; for Cmax: read-out: Cmax; for Tmax: read-out: Tmax
Method: The animals to be tested (ICR mice) were fasted for 12 h before administration and food was provided 4 h after administration, and water was freely drunk before and after the experiment and during the experiment.
After intragastric administration, about 0.1 mL of blood was collected from the orbit at 0 min, 15 min, 30 min, 1 h, 2 h, 4 h, 6 h, 8 h, 10 h, and 24 h. After anticoagulation with EDTA-K2, blood samples were transferred to a centrifuge within 30 min, and centrifuged at 4000 rpm for 10 min at 4° C. to separate the plasma. All the plasma samples were collected and immediately stored at −20° C. for testing.
300 μL of acetonitrile solution containing an internal standard ([…] diazepam) was added to 20 μL of the plasma sample to be tested and a standard curve sample. The mixture was shaken and homogeneously mixed for 5 min, and centrifuged at 12,000 rpm for 10 min. 70 μL of supernatant was taken and diluted with 70 μL of ultrapure water. After being mixed well, 2 μL of the resulting sample was subjected to LC/MS/MS, and a chromatogram was recorded.

| IC50 [1] [nM] | IC50 [2] [nM] | IC50 [3] [nM] | SMILES | other results |
| --- | --- | --- | --- | --- |
| 0.079 | < 5 | < 50 | Cc1cc2cc(n1)-c1cnn(C)c1OCCC[C@@H](C1CC1)CN1/C(=N/C2=O)Nc2ccc(N[C@H](C)CCN3CCCCC3)cc21 [Example 143] |  |
| 0.068 | < 5 | < 50 | Cc1cc2cc(n1)-c1cnn(C)c1OCCC[C@@H](C1CC1)CN1/C(=N/C2=O)Nc2ccc(N[C@@H](C)CCN3CCCCC3)cc21 [Example 144] |  |
| 0.1 | < 5 | < 50 | [2H]C([2H])([2H])N(C[C@H](C)Nc1ccc2c(c1)N1C[C@H](C3CC3)CCCOc3c(cnn3C)-c3cc(cc(C)n3)C(=O)/N=C/1N2)C([2H])([2H])[2H] [Example 123] |  |
|  |  | < 50 | Cc1cc2cc(n1)-c1cnn(C)c1OCCC[C@@H](C1CC1)CN1/C(=N/C2=O)Nc2ccc(N(C)[C@@H](C)CN(C)C)cc21 [Example 85] |  |
|  | < 5 |  | CCC1(CNc2ccc3c(c2)N/C2=N\C(=O)c4cc(C)nc(c4)-c4cnn(C)c4OCCC[C@@H](C4CC4)CN23)COC1 [Example 92] | IC50 [4]: < 1 nM |
| 0.076 | < 5 | < 50 | Cc1cc2cc(n1)-c1cnn(C)c1OCCC[C@@H](C1CC1)CN1/C(=N/C2=O)Nc2cc(N[C@H](C)CCN3CCCCC3)ccc21 [Example 139] |  |
|  | < 5 |  | Cc1cc2cc(n1)-c1cnn(C)c1OCCC[C@@H](C1CC1)CN1/C(=N/C2=O)Nc2ccc(N[C@H](C)CN(C)C)cc21 [Example 65] | IC50 [4]: < 1 nM |
|  | < 5 | < 50 | Cc1cc2cc(n1)-c1cnn(C)c1OCCC[C@@H](C1CC1)CN1/C(=N/C2=O)Nc2ccc(NC3CC(N(C)C)C3)cc21 (stereo partly drawn) [Example 98] | IC50 [5]: 0.087 nM |
|  |  | < 50 | Cc1cc2cc(n1)-c1cnn(C)c1OCCC[C@@H](C1CC1)CN1/C(=N/C2=O)Nc2ccc(N[C@H]3CC[C@H](N(C)C)C3)cc21 [Example 136] | IC50 [5]: 0.15 nM |
| 0.074 | < 5 | < 50 | [2H]C([2H])([2H])N(C[C@@H](C)Nc1ccc2c(c1)N/C1=N\C(=O)c3cc(C)nc(c3)-c3cnn(C)c3OCCC[C@@H](C3CC3)CN12)C([2H])([2H])[2H] [Example 146] |  |
|  |  | < 50 | Cc1cc2cc(n1)-c1cnn(C)c1OCCC[C@@H](C1CC1)CN1/C(=N/C2=O)Nc2ccc(N(C)C3CCN(C)CC3)cc21 [Example 117] | IC50 [5]: 0.12 nM; CLz ([6]; IV): 58.2 mL/min/kg; AUC(0-inf) ([6]; 1 mg/kg, IV): 286 ng·h/mL; AUC(0-t) ([6]; 1 mg/kg, IV): 284 ng·h/mL; MRT last ([6]; 1 mg/kg, IV): 3.3 h; half-life ([6]; 1 mg/kg, IV): 2.18 h; bioavailability [6]: 29.1%; AUC(0-inf) ([6]; PO, 10 mg/kg intragastric): 848 ng·h/mL; AUC(0-t) ([6]; PO, 10 mg/kg intragastric): 826 ng·h/mL; Cmax ([6]; PO, 10 mg/kg intragastric): 77.1 ng/mL; MRT last ([6]; PO, 10 mg/kg intragastric): 6.79 h; Tmax ([6]; PO, 10 mg/kg intragastric): 6 h; half-life ([6]; PO, 10 mg/kg intragastric): 4.17 h |
| 0.072 | < 5 | < 50 | Cc1cc2cc(n1)-c1cnn(C)c1OCCC[C@@H](C1CC1)CN1/C(=N/C2=O)Nc2ccc(N[C@H](C)CN3CCCCC3)cc21 [Example 141] |  |
|  |  | < 50 | [2H]C([2H])([2H])N(CCN(C)C)c1ccc2c(c1)N1C[C@H](C3CC3)CCCOc3c(cnn3C)-c3cc(cc(C)n3)C(=O)/N=C/1N2 [Example 116] |  |
| 0.12 | < 5 | < 50 | Cc1cc2cc(n1)-c1cnn(C)c1OCCC[C@@H](C1CC1)CN1/C(=N/C2=O)Nc2cc(N[C@H]3CC[C@H](O)CC3)ccc21 [Example 151] |  |
|  |  | < 50 | Cc1cc2cc(n1)-c1cnn(C)c1OCCC[C@@H](C1CC1)CN1/C(=N/C2=O)Nc2ccc(N[C@H]3C[C@H](N(C)C)C3)cc21 [Example 128] | IC50 [5]: 0.13 nM; CLz ([6]; IV): 75.3 mL/min/kg; AUC(0-inf) ([6]; 1 mg/kg, IV): 221 ng·h/mL; AUC(0-t) ([6]; 1 mg/kg, IV): 214 ng·h/mL; MRT last ([6]; 1 mg/kg, IV): 1.65 h; half-life ([6]; 1 mg/kg, IV): 2.17 h; bioavailability [6]: 30.5%; AUC(0-inf) ([6]; PO, 10 mg/kg intragastric): 662 ng·h/mL; AUC(0-t) ([6]; PO, 10 mg/kg intragastric): 654 ng·h/mL; Cmax ([6]; PO, 10 mg/kg intragastric): 57.8 ng/mL; MRT last ([6]; PO, 10 mg/kg intragastric): 6.81 h; Tmax ([6]; PO, 10 mg/kg intragastric): 6 h; half-life ([6]; PO, 10 mg/kg intragastric): 3.46 h |
